Measurements taken from paper PMC5040960, “A single molecule assay to probe monovalent and multivalent bonds between hyaluronan and its key leukocyte receptor CD44 under force” (Scientific Reports, 2016).

Target: T1, streptavidin (SAv) (Streptomyces avidinii, UniProt P22629)
T1 construct: commercial lyophilized streptavidin (Sigma Aldrich), homotetramer, immobilised as monolayer on biotinylated OEG
Test: AFM single molecule force spectroscopy, Bell-Evans fit
Type: binding
Conditions: labelled compound (biotin tethered to AFM tip by PEG linker and thiol-gold bond); koff extrapolated to zero force; 10 mM HEPES pH 7.4, 150 mM NaCl, ambient temperature
Text: AFM single molecule force spectroscopy, Bell-Evans fit on streptavidin (SAv)

T1 sequence (P22629 25-183): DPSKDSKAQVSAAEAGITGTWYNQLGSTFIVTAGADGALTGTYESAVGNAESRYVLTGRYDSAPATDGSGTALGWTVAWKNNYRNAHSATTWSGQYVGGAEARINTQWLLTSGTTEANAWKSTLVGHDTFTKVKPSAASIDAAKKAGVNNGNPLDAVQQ

biotin
koff: 1.40 ± 0.59 s⁻¹
